Assay results published in patent US11419875B2, “Compounds and compositions for treating hematological disorders” (Aurigene Discovery Technologies Limited, priority 2017, dated 2022).

What was measured:
[1] = tested on: MV4-11 cells; assay: MV4-11 CellTiter Glo cell viability/proliferation assay (Example 2); type: cell-based; settings: Homo sapiens, 72 hours, CellTiter Glo, read-out: MV4-11 IC50
Protocol: The CellTiter Glo Luminescent cell viability assay is a highly sensitive homogenous assay to determine the number of viable cells in culture based on quantitation of ATP levels in metabolically active cells. Addition of CTG reagent results in cell lysis and generation of a luminescent signal proportional to the amount of ATP present. The amount of ATP is proportional to the number of cells present. The luminescence is measured using a multilabel reader capable of measuring luminescence. An increase or decrease in cell numbers results in a concomitant change in luminescene level, indicating the effect of the test material on cellular proliferation.
CellTiter-Glo buffer was thawed and equilibrated to room temperature. Lyophilized CellTiter-Glo substrate was brought to room temperature. CTG reagent is prepared by mixing the CellTiter-Glo buffer (Promega Cat #G7572) into an amber bottle containing CellTiter-Glo substrate to reconstitute the lyophilized enzyme/substrate mixture. Both Buffer and the lyophilized substrate are supplied with the kit.
Add 1% Penicillin Streptomycin and 10% FBS to commercially available liquid IMDM (Iscove's Modified Dulbecco's Medium, Invitrogen Cat #12440046).
1. MV4-11 cells were counted and re-suspended to a density of 0.1×10^6 cells/ml in complete IMDM medium. 95 μL of this cell suspension was added per well of a 96-well plate (black plate with clear bottom) to seed ˜0.1×10^5 cells per well. The plates were incubated at 37° C. under a humidified atmosphere of 5% CO2 for ˜2 hours before compound addition. 2. Test compounds were dissolved in 100% DMSO to generate a 2/6/10/20 mM stock solution. A 200× concentration of the required final concentrations was prepared in DMSO. 10 μL of each concentration (200×) was then diluted in 90 μL of serum-free IMDM to prepare an intermediate concentration of 20× in medium. The DMSO concentration in this step was 10% (Intermediate dilution). 5 μL of each intermediate dilution was then added in triplicates to cells previously seeded in 96-well plate. The final DMSO concentration was 0.5% in the experimental wells. Cells treated with 0.5% DMSO served as a positive control. 100 μL of complete IMDM medium served as media blank for data analysis. 200 μL of 1×PBS was added in all corner wells of the assay plate to avoid evaporation of media in experimental wells. Plates were then incubated for 72 hours in an incubator with 5% CO2 at 37° C. 3. To terminate the assay, 50 μL of CTG reagent was added to each well and the plate was incubated at room temperature for 15 minutes on a shaker. The plate was read using the luminescence mode on a multilabel reader capable of measuring luminescence. The luminescence values were plotted against respective concentrations of the test item using GraphPad Prism to calculate the IC50 value for the test item. Percent Inhibition is Calculated as Follows: […]
Positive control wells contained cells, IMDM medium and 0.5% DMSO. Blank control wells contained IMDM medium alone.

[2] = tested on: MV4-11 cells; assay: AML xenograft model MV4-11, in vivo tumor growth inhibition; settings: 21 days
Protocol: ND-2158 at 100 mpk was used as a control.
MV4-11 cells were grown in Iscove's Modified Dulbecco's medium supplemented with 10% FBS and 1% penicillin streptomycin. To establish tumors, 15×10^6 MV4-11 cells were injected subcutaneously in 200 μl of 1:1 HBSS and ECM gel into the right flank of the athymic nude mice. Animals were randomized based on tumor volumes. […] Treatments were initiated when the average tumor volume sizes were 333 mm^3. Tumor volumes were measured three times a week and body weights were monitored daily.

IC50 [1] | Structure (SMILES) | further results
> 500 nM | Nc1ccc(-c2cccc(C(=O)Nc3cc4oc(N5CCOCC5)nc4nc3C3CC3)n2)cn1 | 
< 50 nM | O=C(Nc1cc2oc(N3CCCCC3)nc2nc1N1CCCCC1)c1cccc(-c2cn[nH]c2)n1 | 
< 50 nM | O=C(Nc1cc2oc(N3CCOCC3)nc2nc1N1CCCCC1)c1cccc(-c2cn[nH]c2)n1 | 
50 to 500 nM | Nc1ccc(-c2cccc(C(=O)Nc3cc4sc(N5CCOCC5)nc4cn3)n2)cn1 | 
< 50 nM | Cc1cc(-c2nc(C(=O)Nc3cnc4nc(N5CCOCC5)sc4c3)co2)ccn1 | 
> 500 nM | Nc1ccc(-c2cccc(C(=O)Nc3cnc4nc(N5CCOCC5)sc4c3)n2)cn1 | 
50 to 500 nM | O=C(Nc1cc2sc(N3CCCCC3)nc2nc1N1CCCCC1)c1cccc(-c2cn[nH]c2)n1 | 
< 50 nM | Cc1cc(-c2nc(C(=O)Nc3cc4oc(N5CCOCC5)nc4nc3N3CC[C@H](O)C3)co2)ccn1 | 
> 500 nM | O=C(Nc1cc2oc(N3CCOCC3)nc2nc1N1CCCCC1)c1cccc(N2CC[C@H](O)C2)n1 | 
< 50 nM | Cn1cc(-c2cccc(C(=O)Nc3cc4sc(N5CCCCC5)nc4nc3N3CCCCC3)n2)cn1 | 
< 50 nM | Cn1cc(-c2cccc(C(=O)Nc3cc4sc(N5CCOCC5)nc4nc3N3CCCCC3)n2)cn1 | 
> 500 nM | N[C@H]1CCN(c2cccc(C(=O)Nc3cc4sc(N5CCOCC5)nc4nc3N3CCCCC3)n2)C1 | 
> 500 nM | O=C(Nc1cc2sc(N3CCOCC3)nc2nc1N1CCCCC1)c1cccc(N2CC[C@H](O)C2)n1 | 
> 500 nM | N[C@H]1CCN(c2cccc(C(=O)Nc3cc4sc(N5CCCCC5)nc4nc3N3CCCCC3)n2)C1 | 
> 500 nM | O=C(Nc1cc2sc(N3CCCCC3)nc2nc1N1CCCCC1)c1cccc(N2CC[C@H](O)C2)n1 | 
< 50 nM | Cc1cc(-c2nc(C(=O)Nc3cc4sc(N5CCOCC5)nc4nc3C3CC3)co2)ccn1 | 
< 50 nM | O=C(Nc1cc2sc(N3CCOCC3)nc2nc1N1CCCCC1)c1coc(N2CC[C@H](O)C2)n1 | 

IC50 [1] | Structure (SMILES) | further results
< 50 nM | Cc1cc(-c2nc(C(=O)Nc3cc4sc(N5CCOCC5)nc4nc3N3CC[C@H](O)C3)co2)ccn1 | 
> 500 nM | O=C(Nc1cc2sc(N3CCOCC3)nc2nc1C1CC1)c1cccc(N2CC[C@H](O)C2)n1 | 
< 50 nM | C[C@H](O)Cn1cc(-c2cccc(C(=O)Nc3cc4sc(N5CCOCC5)nc4nc3C3CC3)n2)cn1 | 
> 500 nM | O=C(Nc1cc2sc(N3CCOCC3)nc2nc1N1CCC1)c1cccc(N2CC[C@H](O)C2)n1 | 
< 50 nM | Cc1cc(-c2nc(C(=O)Nc3cc4sc(N5CCOCC5)nc4nc3N3CC[C@@H](O)C3)co2)ccn1 | 
< 50 nM | C[C@H](O)Cn1cc(-c2cccc(C(=O)Nc3cc4sc(N5CCOCC5)nc4nc3N3CCCCC3)n2)cn1 | 
< 50 nM | Cc1nn(C)c2cc(N3CCC(CO)CC3)c(NC(=O)c3coc(-c4ccnc(N)c4)n3)cc12 | 
< 50 nM | Nc1ccc(-c2cccc(C(=O)Nc3cc4cn(C5CCCC5)nc4cc3N3CCOCC3)n2)cn1 | 
< 50 nM | Cc1cc(-c2nc(C(=O)Nc3cc4cn(C)nc4cc3C3CC3)co2)ccn1 | 
< 50 nM | Cc1ccc(C(=O)Nc2cc3cn(C)nc3cc2N2CCCCC2)nc1-c1ccc(N)nc1 | 
< 50 nM | Cc1ccc(C(=O)Nc2cc3cn(C)nc3cc2N2CCCCC2)nc1-c1cnn(C)c1 | 
< 50 nM | C[C@H](O)Cn1cc(-c2cccc(C(=O)Nc3cc4cn(C)nc4cc3N3CCCCC3)n2)cn1 | 
> 500 nM | Cn1cc2cc(NC(=O)c3cccc(N4CC[C@@H](O)C4)n3)c(N3CCCCC3)cc2n1 | 
50 to 500 nM | Cn1cc2cc(NC(=O)c3cccc(N4CC[C@H](O)C4)n3)c(N3CCCCC3)cc2n1 | 
50 to 500 nM | Cn1cc2cc(NC(=O)c3cccc(N4CCC(O)C4)n3)c(N3CCCCC3)cc2n1 (stereo not shown) | 
< 50 nM | C[C@H](O)Cn1cc(-c2cccc(C(=O)Nc3cc4cn(C)nc4cc3C3CC3)n2)cn1 | 
 | NC(=O)[C@@H](O)C[C@H]1CCc2sc3ncnc(OC4CCC(N5CCOCC5)CC4)c3c21 (stereo partly shown) [ND-2158, reference compound] | tolerability (clinical signs, gross pathological changes) ([2]; 100 mg/kg i.p. once daily): well tolerated without any treatment related clinical signs and gross pathological changes; tumor growth inhibition ([2]; 100 mg/kg i.p. once daily): 68%; body weight ([2]; all treatment groups, FIG. 4): No body weight reduction was observed

Structure (SMILES) | IC50 [1] | further results
Cc1cc(-c2nc(C(=O)Nc3cc4oc(N5CCOCC5)nc4nc3N3CC[C@@H](O)C3)co2)ccn1 [drawing 32] | < 50 nM | 
